Among the test systems are 786-0 renal; CAKI-1 renal; K-562 leukemia; NCI-H522 lung; NCI/ADR-RES ovarian; RPMI-8226 leukemia; SF-268 CNS; SF-295 CNS; SK-OV-3 ovarian; SNB-75 CNS; T-47D breast.
Holding throughout (experiment): NCI-60 cell line screen, 48 h

The structures appear in SMILES notation. Values joined by “and” are separate entries in the source; they are usually repeats but may differ in a detail not shown here. Equal values may be shown once.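 1) Cells in 96-well plates. 2) Compound, 48 h, 5 concentrations. 3) Linear interpolation between surrounding doses. 4) Unreached endpoint = highest concentration. GI50 marks 50% less growth. At the TGI there is no net growth.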 A value given as a limit tells only on which side of the number the result lay.

The results in this text go back to PubChem BioAssay (NCI).

With `O=C(CNc1ccccn1)Nn1cnc2ccc(S(=O)(=O)Nc3ccccn3)cc2c1=O`, the TGI with 786-0 renal, in the assay on CAKI-1 renal, in the assay on K-562 leukemia, in the assay with NCI-H522 lung, in the assay with NCI/ADR-RES ovarian and in the assay with RPMI-8226 leukemia was more than 100 µM each time. Moreover, the TGI with SF-268 CNS, in the assay on SF-295 CNS, in the assay on SK-OV-3 ovarian and with SNB-75 CNS was more than 100 µM in each case.

In the case of `CC(C)c1cccc(C(C)C)c1NC(=O)C(=O)Cc1nc2ccc([N+](=O)[O-])cc2[nH]c1=O`, the TGI was more than 100 µM in the assay on 786-0 renal; more than 100 µM in the assay on CAKI-1 renal; more than 100 µM in the assay with K-562 leukemia; 54.4 µM in the assay on NCI-H522 lung; more than 100 µM in the assay with SF-295 CNS; more than 100 µM in the assay on SK-OV-3 ovarian. For the same molecule, in the assay with SNB-75 CNS, the TGI is more than 100 µM.

For the molecule `CC(=O)OI1NC(=O)c2ccccc21`, the TGI with 786-0 renal, in the assay with K-562 leukemia, in the assay on NCI-H522 lung, with NCI/ADR-RES ovarian, in the assay with RPMI-8226 leukemia and in the assay on SF-268 CNS was more than 100 µM each time. In addition, the TGI in the assay with SF-295 CNS, with SK-OV-3 ovarian and in the assay on SNB-75 CNS was more than 100 µM in each case.

Turning to `CSc1nc(=S)[nH]c2c1c(C)nn2-c1ccccc1`, the TGI with 786-0 renal is 88.1 µM; with CAKI-1 renal it was 40.3 µM; in the assay on K-562 leukemia it was 51.9 µM; in the assay on NCI-H522 lung it was 65.4 µM; with RPMI-8226 leukemia, 47.7 µM; in the assay on SF-268 CNS, more than 100 µM. For the same molecule, the TGI in the assay on SF-295 CNS amounted to 84.4 µM; in the assay with SK-OV-3 ovarian it was 90.3 µM; in the assay with T-47D breast, 62.5 µM.

Turning to `Nc1nc(NNc2cccc(F)c2)cc(=O)[nH]1`, the TGI is 37.5 µM with 786-0 renal; 74 µM in the assay with K-562 leukemia; more than 100 µM in the assay on NCI/ADR-RES ovarian; more than 100 µM with RPMI-8226 leukemia; more than 100 µM with SF-295 CNS.

Regarding `CC1=CC2C(C=C1)S(=O)(=O)N1CC21c1ccccc1` (configuration not stated), the TGI in the assay on 786-0 renal, in the assay with CAKI-1 renal, with K-562 leukemia, in the assay on NCI-H522 lung, in the assay on RPMI-8226 leukemia and with SF-268 CNS was more than 100 µM in each case. Moreover, the TGI with SF-295 CNS, in the assay with SK-OV-3 ovarian and with SNB-75 CNS was more than 100 µM in each case.

Take `CC(C)N(C(=O)C12C3C4C1C1C2C3C41C#N)C(C)C` (configuration not stated): the TGI with 786-0 renal was more than 100 µM; in the assay with CAKI-1 renal, more than 100 µM; in the assay with K-562 leukemia it was more than 100 µM; in the assay on NCI-H522 lung it was more than 100 µM; with RPMI-8226 leukemia, more than 68.1 µM; with SF-268 CNS, more than 100 µM. The TGI with SF-295 CNS, in the assay on SK-OV-3 ovarian and with SNB-75 CNS was more than 100 µM in each case.

As for `CC(=O)Nc1[nH]n(C)c(=O)c1-c1nnc(C)s1`, the TGI with 786-0 renal, in the assay with CAKI-1 renal, in the assay with K-562 leukemia, in the assay with NCI-H522 lung, in the assay with RPMI-8226 leukemia and with SF-268 CNS was more than 100 µM throughout. The TGI with SK-OV-3 ovarian and in the assay with SNB-75 CNS was more than 100 µM each time.

In the case of `COc1cc2c(c(OC)c1OC)-c1ccc(SC)c(=O)cc1[C@@H](NCc1ccc(F)cc1)CC2`, the TGI in the assay with 786-0 renal was 16.8 µM and 25 µM; with CAKI-1 renal, 51.7 µM and > 100 µM; in the assay on K-562 leukemia, 75 µM and > 100 µM; in the assay on RPMI-8226 leukemia it was 31.2 µM; in the assay on SF-295 CNS it was 22 µM and > 100 µM. The GI50 with CAKI-1 renal is less than 0.0075 µM.

On to `C=CCCC1(O)C(O)C(CO)O[C@H](O[C@@]2(CO)OC(CO)C(O)C2O)C1O` (some centres not stated), for which the TGI in the assay with 786-0 renal, with CAKI-1 renal, in the assay on K-562 leukemia, in the assay with NCI-H522 lung, with NCI/ADR-RES ovarian and in the assay with RPMI-8226 leukemia was more than 100 µM throughout. Also, the TGI with SF-268 CNS, in the assay on SF-295 CNS and in the assay on SNB-75 CNS was more than 100 µM each time.

As to `CCOC1=C2N=C(C(CC)c3ccccc3F)N=C2C(=O)c2ccccc21` (configuration not stated), the TGI with 786-0 renal, with CAKI-1 renal, in the assay on K-562 leukemia, in the assay on NCI-H522 lung, with RPMI-8226 leukemia and in the assay on SF-268 CNS was more than 100 µM throughout. In addition, the TGI was more than 100 µM in the assay on SF-295 CNS and 47.8 µM with SNB-75 CNS.

In the case of `O=Cc1c[nH]c2c(=O)[nH]cnc12`, the TGI with 786-0 renal, in the assay with CAKI-1 renal, in the assay on K-562 leukemia, in the assay on NCI-H522 lung, in the assay on RPMI-8226 leukemia and in the assay on SF-268 CNS was more than 100 µM each time. The TGI with SF-295 CNS, in the assay on SK-OV-3 ovarian and in the assay with SNB-75 CNS was more than 100 µM each time.

For the molecule `CC(C)(C)N=CN1C=Cc2nc3ccccc3cc2C1`, the TGI in the assay on 786-0 renal, with CAKI-1 renal, in the assay with K-562 leukemia, in the assay with NCI-H522 lung, with SF-268 CNS and with SF-295 CNS was more than 100 µM in each case. For the same molecule, the TGI in the assay on SK-OV-3 ovarian and in the assay with SNB-75 CNS was more than 100 µM throughout.

With `COCC(C)(C)N=CN1Cc2cc3ccccc3nc2C1`, the TGI in the assay with 786-0 renal, in the assay with CAKI-1 renal, with K-562 leukemia, with NCI-H522 lung, with RPMI-8226 leukemia and with SF-268 CNS was more than 100 µM throughout. Moreover, the TGI in the assay on SF-295 CNS, with SK-OV-3 ovarian and with SNB-75 CNS was more than 100 µM throughout.

For the molecule `COc1ccc2[nH]c3c(c2c1)[C@H](c1ccccc1)C[C@@H]1C(=O)N(c2ccccc2)C(=O)[C@H]31`, the TGI with 786-0 renal was 35.3 µM; in the assay with CAKI-1 renal, 71.7 µM; in the assay on K-562 leukemia, more than 100 µM; in the assay on NCI-H522 lung, more than 100 µM; in the assay on SF-268 CNS, more than 100 µM; in the assay on SF-295 CNS, more than 100 µM. Also, the TGI in the assay on SK-OV-3 ovarian is 50 µM; in the assay on SNB-75 CNS, 40.1 µM.

Turning to `CN(C)CCNc1ccc2ncn3c4ccccc4c(=O)c1c23`, the TGI in the assay on 786-0 renal is 13.9 µM; in the assay on CAKI-1 renal it was 12.9 µM; in the assay with K-562 leukemia it was more than 100 µM; with NCI-H522 lung it was 5.41 µM; with RPMI-8226 leukemia, more than 100 µM; with SF-268 CNS, 20.2 µM. Moreover, the TGI was determined as 13.4 µM in the assay with SF-295 CNS, 16.2 µM in the assay with SK-OV-3 ovarian and 16 µM in the assay on SNB-75 CNS.
